Data on 38 molecules can be found in patent publication US4385112A (priority 1980, dated 1983).

Common to all, as to type: biochemical, Pseudomonas putida B-0781
Assay [1] concerns nucleoside oxidase. Briefly: Substrate specificity: relative enzymatic activity on various substrates. Particulars: substrate each 1 mM concentration. As for the experimental part:
Relative enzymatic activities on various substrates (nucleoside, nucleic acid base, sugar, and nucleotide, each 1 mM concentration) shown in Table 1 were measured.
A reaction mixture (0.5 ml) consisting of 0.2 M dimethylglutarate-NaOH buffer (pH 6.0) 0.2 ml, 0.2 w/w% N,N-diethyl-m-toluidine 0.05 ml, 0.3 w/w% 4-aminoantipyrine 0.05 ml, 10 mM adenosine 0.05 ml and distilled water 0.10 ml was pre-incubated at 37° C. for 3 minutes. After adding enzyme solution (20 μl), the mixture was incubated at 37° C. for 10 minutes, and 0.5 ml of 4 M urea solution containing 0.2% cetylpyridiniumchloride was added to stop the reaction. […] Then the enzyme solution was replaced by distilled water (20 μl) as a control (AB).
(§1) Enzymatic activity should be measured within the value of As below 0.15.
One unit (1 U.) of enzyme activity is that amount of enzyme such that 1μ mole of hydrogen peroxide is generated in one minute at 37° C. with adenosine as substrate, and represented by the following equation: […]

Assay [2] relates to nucleoside oxidase. Briefly: Effect of surface active agent on enzyme activity (Table 3). Particulars: 0.1 w/w % surface active agent; None 100. The protocol:
as §1
(§2) One unit (1 U.) of enzyme activity is that amount of enzyme such that 1μ mole of hydrogen peroxide is generated in one minute at 37° C. with adenosine as substrate, and represented by the following equation:
(§3) Enzyme activity (U/ml)=1.25×(As-AB)×dilution ratio.

Assay [3] relates to nucleoside oxidase. Briefly: Effect of metal ions on enzyme activity (Table 2). Also on record: concentration or dose not given beside the values. Particulars: control 100; 10 min. As for the experimental part:
as §1, §2, §3

Assay [4] concerns nucleoside oxidase. Briefly: Km value of the enzyme. Particulars: for adenosine. As for the experimental part: as §1, §2, §3
Assay [5] has as its system nucleoside oxidase. Briefly: Amount of oxygen consumption and hydrogen peroxide generation in the reaction. The protocol: The amount of consumed oxygen (measured by an oxygen electrode) and generated hydrogen peroxide (colorimetric assay at 545 nm) were measured. Results: adenosine 0.05μ mole; consumed oxygen 0.097μ mole; and generated hydrogen peroxide 0.101μ mole.

Consider `O=c1[nH]c(=O)c2[nH]cnc2[nH]1` [xanthine], for which the Relative activity in the assay on nucleoside oxidase [1] amounted to 0%.
For the molecule `CCCCCCCCCCCCOS(=O)(=O)[O-].[Na+]` [sodium dodecyl sulfate], in the assay on nucleoside oxidase [2], the Relative activity turned out to be 66%.
Regarding `Nc1ncnc2nc[nH]c12` [adenine], the Relative activity in the assay with nucleoside oxidase [1] came to 0%.
On the same count and under the same terms, with `NC(=O)c1ncn([C@@H]2O[C@H](CO)[C@@H](O)[C@H]2O)c1O` [bredinine, 4-carbamoyl-1-D-ribofuranosylimidazolium-5-olate, reference compound] the figure was 48.2%.
As for `[Mg+2]` [Mg^2++], in the assay with nucleoside oxidase [3], the Relative activity is reported as 104%.
As for `O=c1[nH]c(=O)c2ncn([C@@H]3O[C@H](COP(=O)(O)O)[C@@H](O)[C@H]3O)c2[nH]1` [5'-XMP], in the assay on nucleoside oxidase [1], the Relative activity was 0%.
In the case of `[Ca+2]` [Ca^2+], the Relative activity with nucleoside oxidase [3] turned out to be 102%.
With `Nc1ncnc2c1ncn2[C@@H]1O[C@H](COP(=O)(O)O)[C@@H](O)[C@H]1O` [5'-AMP], the Relative activity in the assay with nucleoside oxidase [1] was determined as 0%.
Take `CCCCCCCCCCCCCCCC[N+](C)(C)C.[Cl-]` [cetyl trimethylammonium chloride]: in the assay on nucleoside oxidase [2], the Relative activity is 78%.
As for `O=c1[nH]c(=O)c2ncn([C@@H]3O[C@H](CO)[C@@H](O)[C@H]3O)c2[nH]1` [xanthosine], the Relative activity in the assay with nucleoside oxidase [1] was found to be 14.3%.
For the molecule `O=C(O)c1cc[c]([Hg][Cl])cc1` [PCMB, reference compound], the Relative activity in the assay with nucleoside oxidase [3] was found to be 102%.
As to `Nc1ccn([C@@H]2O[C@H](CO)[C@@H](O)[C@H]2O)c(=O)n1` [cytidine], the Relative activity in the assay on nucleoside oxidase [1] amounted to 65.7%.
Same read-out and setting: for `O=c1ccn([C@@H]2O[C@H](COP(=O)(O)O)[C@@H](O)[C@H]2O)c(=O)[nH]1` [5'-UMP] the value was 0%.
As for sodium lauryl benzene sulfonate, the Relative activity in the assay with nucleoside oxidase [2] came out at 38%.
As to `Nc1nc2c(ncn2[C@@H]2O[C@H](CO)[C@@H](O)[C@H]2O)c(=O)[nH]1` [guanosine], the Relative activity with nucleoside oxidase [1] is given as 97.1%.
On the same count and under the same terms, with `Cc1c[nH]c(=O)[nH]c1=O` [thymine] the figure was 0%.
For `Nc1ncnc2c1ncn2[C@@H]1O[C@H](CO)[C@@H](O)[C@H]1O` [adenosine], the Relative activity in the assay with nucleoside oxidase [1] was determined as 100%. For the same molecule, the Michaelis-Menten constant (Km) with nucleoside oxidase [4] came out at 45 µM. Further, in the assay with nucleoside oxidase [5], the “moles of hydrogen peroxide generated per 1 mole of adenosine” value came out at 2 mol and the “moles of oxygen consumed per 1 mole of adenosine” value is 2 mol. Also, in the assay with nucleoside oxidase [5] (adenosine 0.05 μ mole, nucleoside oxidase 3 U., colorimetric assay at 545 nm), the generated hydrogen peroxide came to 0.101 μ mole. In addition, the consumed oxygen with nucleoside oxidase [5] (adenosine 0.05 μ mole, nucleoside oxidase 3 U., oxygen electrode) stood at 0.097 μ mole.
In the case of `Nc1nc2c(ncn2[C@@H]2O[C@H](COP(=O)(O)O)[C@@H](O)[C@H]2O)c(=O)[nH]1` [5'-GMP], in the assay with nucleoside oxidase [1], the Relative activity worked out at 0%.
The same measure, in the same setting: for `Nc1ncnc2c1ncn2[C@@H]1O[C@H](COP(=O)(O)OP(=O)(O)OP(=O)(O)O)[C@@H](O)[C@H]1O` [5'-ATP] the value was 0%; for `Nc1ncnc2c1ncn2[C@@H]1O[C@H](COP(=O)(O)OP(=O)(O)O)[C@@H](O)[C@H]1O` [5'-ADP], 0%.
On to `[Ba+2]` [Ba^2+], for which the Relative activity in the assay with nucleoside oxidase [3] is on record as 100%.
`O=C[C@H](O)[C@H](O)[C@H](O)CO` [D-ribose]: the Relative activity in the assay on nucleoside oxidase [1] worked out at 0%.
Regarding `[Zn+2]` [Zn^2+], the Relative activity in the assay on nucleoside oxidase [3] is listed as 94%.
For the molecule `O=c1[nH]cnc2nc[nH]c12` [hypoxanthine], the Relative activity in the assay with nucleoside oxidase [1] is 0%.
Still for that read-out and setting: for `O=c1cc[nH]c(=O)[nH]1` [uracil] the value was 0%; for `Nc1ncnc2c1ncn2[C@@H]1O[C@H](CO)[C@@H](O)[C@@H]1O` [arabinosyladenine, reference compound], 67.2%.
Regarding `C[C@H](CCC(=O)O)[C@H]1CC[C@H]2[C@@H]3CC[C@@H]4C[C@H](O)CC[C@]4(C)[C@H]3C[C@H](O)[C@]12C` [sodium deoxycholate], the Relative activity in the assay on nucleoside oxidase [2] is 102%.
Take `Nc1ccn([C@@H]2O[C@H](COP(=O)(O)O)[C@@H](O)[C@H]2O)c(=O)n1` [5'-CMP]: in the assay with nucleoside oxidase [1], the Relative activity stood at 0%.
For `Nc1ccn([C@@H]2O[C@H](CO)[C@@H](O)[C@@H]2O)c(=O)n1` [arabinosylcytosine, 1-β-D-arabinofuranosylcytosine, reference compound], the Relative activity with nucleoside oxidase [1] is given as 8.1%.
As for `[Mn+2]` [Mn^2+], the Relative activity with nucleoside oxidase [3] is recorded as 110%.
On to `Cc1cn([C@H]2C[C@H](O)[C@@H](CO)O2)c(=O)[nH]c1=O` [thymidine], for which the Relative activity with nucleoside oxidase [1] is 94.3%.
On the same count and under the same terms, with `O=c1ccn([C@@H]2O[C@H](CO)[C@@H](O)[C@H]2O)c(=O)[nH]1` [uridine] the figure was 94.3%.
With `O=C(O)CN(CCN(CC(=O)O)CC(=O)O)CC(=O)O` [EDTA, reference compound], the Relative activity in the assay with nucleoside oxidase [3] came to 98%.
Consider Triton X-100, for which the Relative activity in the assay with nucleoside oxidase [2] was determined as 104%.
`[Co+2]` [Co^2+]: the Relative activity in the assay on nucleoside oxidase [3] is given as 104%.
`O=P(O)(O)O[C@H]1O[C@H](CO)[C@@H](O)[C@H]1O` [α-D-ribose-1-phosphate]: in the assay with nucleoside oxidase [1], the Relative activity is given as 0%.
Consider `Nc1ncnc2c1ncn2[C@H]1C[C@H](O)[C@@H](CO)O1` [2'-deoxyadenosine], for which the Relative activity in the assay with nucleoside oxidase [1] came out at 99.1%.
Same read-out and setting: with `OC[C@H]1O[C@@H](n2cnc3c(O)ncnc32)[C@H](O)[C@@H]1O` [inosine] the figure was 91.4%.
